Results reported in article PMC11481179, “Development and Application of Reversible and Irreversible Covalent Probes for Human and Mouse Cathepsin‐K Activity Detection, Revealing Nuclear Activity” (Advanced Science, 2024).

Tests used:
[1] = test system: primary human osteoclasts (enriched monocytic cells); assay: Cell viability assay (methylene blue); type: cell-based; details: 48 h incubation
Method: Figure 5 Labeling of endogenous cathepsin K in intact human osteoclast cells. Enriched human monocytes from PBMC were isolated from healthy donors’ blood, cells were treated with MCSF and RANKL or MCSF alone as indicated for 14 days. a–c) Osteoclasts were treated with vehicle (DMSO) or inhibitors ODN or GD30 [3 µM] in a culture medium for 2 h, followed by incubation with GD32 or GD42 for 8 h or GB123 for 2 h similar to as described in Figure 4. (a, b) Confocal fluorescent microscopy of GD32 and GB123 treated cells after fixation. c) Live cell imaging with GD42. d) SDS PAGE of the human osteoclasts and macrophages incubated with DMSO, ODN or GD30 [5 µM] followed by incubation with GD32 or GD42 [5 µM] for 8 h. e) The same gel was analyzed by western blot with an anti‐CTSK antibody. […] Red fluorescence marks cathepsin activity (ABPs) and blue fluorescence marks nucleus (DAPI). g–i) Cell viability assay. […] After 48 h incubation cells were fixed, and viability was measured by methylene blue. The data were expressed as a percentage of control; data represent the mean of two experiments with triplicates for each treatment (± Standard Deviation). […]
with 5µM GD32 for 24 h prior to the cell lysis. Cell lysates were prepared and analyzed as […]
analyzed as previously described. […]
After 48 h cells were fixed, and viability was measured by quantitative colorimetric assay using […]

[2] = target: T1, CTSK (Homo sapiens, UniProt P43235); assay: In vitro kinetic evaluation of cathepsin inhibition, fluorescent substrate Z-FR-AMC; type: biochemical; details: for mode of inhibition: CTSK
T1 sequence (P43235 115-329): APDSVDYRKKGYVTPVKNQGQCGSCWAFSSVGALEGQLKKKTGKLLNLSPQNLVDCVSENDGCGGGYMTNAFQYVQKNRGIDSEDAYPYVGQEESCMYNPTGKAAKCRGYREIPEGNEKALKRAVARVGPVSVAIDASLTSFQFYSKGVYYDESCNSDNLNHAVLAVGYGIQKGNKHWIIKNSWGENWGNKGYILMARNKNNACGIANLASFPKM
From the text: used for TLC. Phosphate Buffer Saline (PBS) was purchased from Biological Industries (pH = […]
7.4) and was used as a buffer system in all experiments if not indicated otherwise. […]
Recombinant human CTSB, CTSK, CTSL, and CTSS were supplied by B. Turk (J.
Stefan Institute).[1] […]
Fluorescent gels were scanned by a Typhoon FLA 9500 flatbed laser scanner (GE Healthcare […]
Bio-Sciences AB, Uppsala, Sweden). BioRad ChemiDox XRS+ was used for western blot […]
analysis. Olympus FV10i inverted microscope (Tokyo,Japan) with Fluoview software or Zeiss […]
Confocal LSM 980 with Airyscan (Germany) with Zen software were used for confocal […]
In vitro kinetic evaluation of labeling recombinant cathepsins:
Reactions were monitored for 30 min at 37° C in 96-well black flat-bottom microplates […]
(Greiner, Germany) using Tecan […] M1000 pro plate reader (Tecan, Switzerland), […]
substrates Z-RR-AMC (CTSL) or Z-FR-AMC (CTSS, CTSB and CTSK), and excitation and […]
emission wavelengths of 370 and 460 nm, respectively. Cathepsin concentrations in the assay were 0.4 nM (CTSK) or 5 nM (CTSS, CTSB, and CTSL). The buffer was 100 mM Na2HPO4/NaH2PO4, 50 mM NaCl, 5 mM DTT, 0,1% Peg-6000, pH 6. For irreversible inhibitors, reaction data were fitted to the one-phase association formula in GraphPad Prism 9 software: Y=Y0 + (Plateau-Y0)*(1-exp(-K*X)) where in this case Y0 and Y represent fluorescence signal at times 0 and t, respectively, K represent the observed reaction rate kobs and X the inhibitor concentration. Inactivation rates at each inhibitor concentration were […]
maximal rate of inactivation (kinact) was obtained as the asymptote from equation […]
for each X, and Kiapp is the apparent inhibition constant. Ki values were calculated from IC50 or from Kiapp using formulas Ki = Kiapp / (1 + Km/S) and IC50 = E0/2 + Kiapp, where Km stands for Michalis-Menten constant, S for substrate concentration and E0 for cathepsin concentration.
The highest inhibitor concentrations in the assay were 50 µM. Measurements were performed in several independent duplicates. Average values are presented with standard deviations. […]

Row | mode of inhibition [2] | Ki ([2]; CTSK 0.4 nM, pH 6, 37 °C) [nM] | kinact ([2]; CTSK 0.4 nM, pH 6, 37 °C) [s⁻¹] | kinact/Ki ([2]; CTSK 0.4 nM, pH 6, 37 °C) | IC50 ([2]; CTSK 0.4 nM, tight binding) [nM] | SMILES | cytotoxicity [1]
1 |  |  |  |  |  | C#CCNC(=O)[C@H](CC(C)C)N[C@@H](c1ccc(-c2ccc(S(=O)(=O)CCNC(=O)OC(C)(C)C)cc2)cc1)C(F)(F)F [GD30] | No toxicity
2 | Irreversible | 3.6 | 0.0007 ± 0.0001 | 26 ± 14 × 10^4 M^−1sec^−1 |  | C#CCNC(=O)[C@H](CC(C)C)N[C@@H](c1ccc(-c2ccc(S(=O)(=O)CCNC(=O)CCCCC[N+]3=C(/C=C/C=C/C=C4/N(C)c5ccc(S(=O)(=O)O)cc5C4(C)C)C(C)(C)c4cc(S(=O)(=O)O)ccc43)cc2)cc1)C(F)(F)F [GD32] | No toxicity
3 | Reversible [Tight binding] |  |  |  | 0.4 | CC(C)C[C@H](N[C@@H](c1ccc(-c2ccc(S(=O)(=O)CCNC(=O)CCCCC[N+]3=C(/C=C/C=C/C=C4/N(C)c5ccc(S(=O)(=O)O)cc5C4(C)C)C(C)(C)c4cc(S(=O)(=O)O)ccc43)cc2)cc1)C(F)(F)F)C(=O)NC1(C#N)CC1 [GD37] | 
